Results from patent publication US4242329A, “Bradykinin-inhibiting tripeptide derivatives” (AB Kabi, priority 1978, dated 1980).
Non-standard residues stand in square brackets, D forms with d. Residues, ends and D or L forms follow the SMILES beside them.

Test system: isolated rat uterus
Assay: Bradykinin-inhibiting activity on isolated rat uterus (contraction at ED70 of bradykinin)
Type: cell-based
Details: for Inhibition of bradykinin effect, %: against ED70 of bradykinin, isolated rat uterus; for Duration of inhibition: time until bradykinin again gives the original contraction
Description: The bradykinin-inhibiting activity of the new tripeptide derivatives is evident from the following disclosure of the biological evaluation on isolated organs. The bradykinin-inhibiting activity is studied on isolated rat uterus. The rats are pretreated subcutanous with 0.2 mg/kg of diethyl stilbestrol, 12-15 hours prior to the experiment. The muscle from uterus which is longitudinally sectioned into halves is arranged in a smooth muscle bath with de Jalon's buffer (de Jalon et al., Farmacother.Acta, Vol. 3, p. 313, 1945), oxygenated with carbogene gas (5% carbon dioxide, 95% oxygen). The temperature is maintained at 35° C. The muscle is stretched with a tension corresponding to 0.5 g. The isometric tension is measured with Grass (FT 03C) force transmitter connected to a Grass polygraph.
Muscle contractions for bradykinin in bath concentrations of 10^-11 -10^-6 M (mole/liter) are registrated, and thereafter the concentration of bradykinin which induces 70% of maximum muscle contraction (ED70) is evaluated. The bradykinin inhibiting activity is then tested with the tripeptide derivatives in bath concentrations of 10^-8, 10^-7, 10^-6 and 10^-5 M, against the ED70 for bradykinin of resp. muscle. For each concentration the tripeptide derivatives are incubated with the uterus tissue 5 and 10 minutes resp. before the addition of bradykinin. The bradykinin-inhibiting activity is expressed as the time in minutes required until bradykinin again gives the original contraction. Each addition of bradykinin is followed by washing with the buffer.

[1] = conc. in test bath 10^-5 mole/liter
[2] = conc. in test bath 10^-6 mole/liter
[3] = conc. in test bath 10^-7 mole/liter
[4] = conc. in test bath 10^-8 mole/liter

Row | Compound | Inhibition of bradykinin effect, % [1] | Duration of inhibition [1] | Inhibition of bradykinin effect, % [2] | Duration of inhibition [2] | Inhibition of bradykinin effect, % [3] | Duration of inhibition [3] | Inhibition of bradykinin effect, % [4] | Duration of inhibition [4]
1 | CCCCCCCOC(=O)[C@H](CCCNC(=N)N)NC(=O)[C@H](Cc1ccccc1)NC(=O)[C@H]1CCCN1 [Example I, H-D-Pro-Phe-Arg-O-heptyl] | 100% | 35 min | 100% | 15 min | 10% | 15 min | 10% | 15 min
2 | CCCCCCCNC(=O)[C@H](CCCNC(=N)N)NC(=O)[C@H](Cc1ccccc1)NC(=O)[C@H]1CCCN1 [Example II, H-D-Pro-Phe-Arg-NH-heptyl] | 100% | 45 min | 100% | 30 min | 15% | 20 min | 15% | 15 min
3 | N=C(N)NCCC[C@H](NC(=O)[C@H](Cc1ccccc1)NC(=O)[C@H]1CCCN1)C(N)=O [Example III, H-D-Pro-Phe-Arg-NH2] (H-[dP]-Phe-Arg-NH2) | 100% | 50 min | 100% | 30 min | 15% | 15 min | 15% | 15 min
